What was measured:
ErbB2 (R896C) = target: T1, ErbB2 (R896C) (Homo sapiens, UniProt P04626, R896C); experiment: ErbB2 mutant inhibition assay (33P-ATP radiometric kinase assay, Reaction Biology); format: biochemical; details: ATP 10 μM, 20 min preincubation, 2 h reaction; read-out: Compound IC50 ErbB2 (R896C)
T1 construct: purchased Reaction Biology Corporation
Experimental: (§1) The reagents and materials used in the assay, as well as the testing procedure, were provided and carried out by Reaction Biology Corporation. The specific steps were as follows: • 1. […] Conditions for the enzyme reaction assay: The test compounds were incubated for 20 minutes, ATP concentration was set at 10 μM, and the total duration of the enzyme reaction was 2 hours. • 3. Experimental steps for the enzyme reaction
(§2) The enzyme reaction buffer was 20 mM HEPES at a pH of 7.5, 10 mM MgCl2, 2 mM MnCl2, 1 mM EGTA, 0.01% Brij35, 0.02 mg/mL BSA, 0.1 mM Na3VO4, 2 mM DTT, and 1% DMSO.
(§3) Kinase activity %=(Remaining kinase activity of test compound samples/Kinase activity of solvent control samples (DMSO))*100%
(§4) The IC50 of the compound was calculated by fitting the kinase activity % at different compound concentrations.

ErbB2 (D769H) = target: T2, ErbB2 (D769H) (Homo sapiens, UniProt P04626, D769H); experiment: as above; format: biochemical; details: ATP 10 μM, 20 min preincubation, 2 h reaction; read-out: Compound IC50 ErbB2 (D769H)
T2 construct: purchased Reaction Biology Corporation
T2 sequence (P04626 23-1255 D769H): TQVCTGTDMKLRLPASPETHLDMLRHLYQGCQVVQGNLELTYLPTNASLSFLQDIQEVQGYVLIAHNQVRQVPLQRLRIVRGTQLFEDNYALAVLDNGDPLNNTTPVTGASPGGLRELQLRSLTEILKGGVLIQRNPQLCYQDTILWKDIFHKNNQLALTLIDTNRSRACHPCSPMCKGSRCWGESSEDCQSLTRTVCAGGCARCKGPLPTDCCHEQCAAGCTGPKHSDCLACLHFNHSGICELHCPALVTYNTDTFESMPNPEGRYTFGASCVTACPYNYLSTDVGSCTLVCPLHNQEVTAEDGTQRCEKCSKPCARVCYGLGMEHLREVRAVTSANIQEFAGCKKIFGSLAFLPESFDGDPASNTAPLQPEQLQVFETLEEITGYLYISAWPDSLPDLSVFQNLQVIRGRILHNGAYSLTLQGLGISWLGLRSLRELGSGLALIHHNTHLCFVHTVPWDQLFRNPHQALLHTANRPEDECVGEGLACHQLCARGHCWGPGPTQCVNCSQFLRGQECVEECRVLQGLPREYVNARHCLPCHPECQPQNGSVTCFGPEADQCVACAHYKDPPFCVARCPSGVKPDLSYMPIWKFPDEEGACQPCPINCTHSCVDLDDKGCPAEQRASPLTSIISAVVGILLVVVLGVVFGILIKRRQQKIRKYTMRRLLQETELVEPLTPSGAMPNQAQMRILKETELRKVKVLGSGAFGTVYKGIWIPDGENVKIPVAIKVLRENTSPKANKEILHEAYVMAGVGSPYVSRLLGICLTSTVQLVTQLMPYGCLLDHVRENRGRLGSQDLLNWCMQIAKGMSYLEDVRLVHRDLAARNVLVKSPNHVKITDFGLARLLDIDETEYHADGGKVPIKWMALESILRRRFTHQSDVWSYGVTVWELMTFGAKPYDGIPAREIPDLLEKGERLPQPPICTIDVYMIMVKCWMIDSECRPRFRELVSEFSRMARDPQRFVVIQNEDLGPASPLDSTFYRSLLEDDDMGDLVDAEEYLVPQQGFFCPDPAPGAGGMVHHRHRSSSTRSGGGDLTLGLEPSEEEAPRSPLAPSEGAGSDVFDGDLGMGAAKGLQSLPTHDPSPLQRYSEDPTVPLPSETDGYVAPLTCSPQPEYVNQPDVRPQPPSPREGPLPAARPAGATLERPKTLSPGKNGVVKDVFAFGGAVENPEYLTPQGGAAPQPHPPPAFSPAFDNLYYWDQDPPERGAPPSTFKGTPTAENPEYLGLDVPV
Experimental: as §1, §2, §3, §4

ErbB2 (V777L) = target: T3, ErbB2 (V777L) (Homo sapiens, UniProt P04626, V777L); experiment: as above; format: biochemical; details: ATP 10 μM, 20 min preincubation, 2 h reaction; read-out: Compound IC50 ErbB2 (V777L)
T3 construct: purchased Reaction Biology Corporation
T3 sequence (P04626 23-1255 V777L): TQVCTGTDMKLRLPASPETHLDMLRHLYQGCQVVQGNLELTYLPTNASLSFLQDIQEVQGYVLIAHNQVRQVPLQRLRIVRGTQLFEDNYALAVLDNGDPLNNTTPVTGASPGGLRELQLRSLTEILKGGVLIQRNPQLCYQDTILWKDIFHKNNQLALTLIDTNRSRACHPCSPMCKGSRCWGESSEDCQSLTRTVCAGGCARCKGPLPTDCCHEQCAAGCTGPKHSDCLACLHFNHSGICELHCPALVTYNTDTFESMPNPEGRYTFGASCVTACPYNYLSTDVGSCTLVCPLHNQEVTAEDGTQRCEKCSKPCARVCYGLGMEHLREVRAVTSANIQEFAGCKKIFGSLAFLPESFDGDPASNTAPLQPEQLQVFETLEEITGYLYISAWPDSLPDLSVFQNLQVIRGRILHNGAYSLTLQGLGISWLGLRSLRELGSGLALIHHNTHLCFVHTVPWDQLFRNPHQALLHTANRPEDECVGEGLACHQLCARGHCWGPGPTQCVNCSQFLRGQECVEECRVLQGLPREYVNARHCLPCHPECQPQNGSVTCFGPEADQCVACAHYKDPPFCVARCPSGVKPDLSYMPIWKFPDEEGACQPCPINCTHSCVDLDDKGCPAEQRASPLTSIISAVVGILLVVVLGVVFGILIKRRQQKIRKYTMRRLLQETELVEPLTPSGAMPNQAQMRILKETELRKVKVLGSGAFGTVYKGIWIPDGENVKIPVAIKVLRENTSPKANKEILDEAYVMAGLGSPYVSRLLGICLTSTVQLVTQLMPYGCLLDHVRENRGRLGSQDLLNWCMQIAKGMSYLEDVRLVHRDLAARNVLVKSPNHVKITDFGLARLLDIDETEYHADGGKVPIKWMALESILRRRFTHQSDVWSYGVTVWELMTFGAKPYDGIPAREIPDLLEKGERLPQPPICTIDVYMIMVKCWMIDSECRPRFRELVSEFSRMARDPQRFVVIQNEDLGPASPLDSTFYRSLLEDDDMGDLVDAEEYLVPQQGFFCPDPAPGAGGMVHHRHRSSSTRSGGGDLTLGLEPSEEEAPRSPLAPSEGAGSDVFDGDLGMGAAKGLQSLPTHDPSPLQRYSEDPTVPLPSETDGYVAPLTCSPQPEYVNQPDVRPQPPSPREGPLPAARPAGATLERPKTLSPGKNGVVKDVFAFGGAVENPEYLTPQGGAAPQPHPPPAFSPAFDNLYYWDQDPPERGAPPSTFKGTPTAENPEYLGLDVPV
Experimental: as §1, §2, §3, §4

ErbB2 (D769Y) = target: T4, ErbB2 (D769Y) (Homo sapiens, UniProt P04626, D769Y); experiment: as above; format: biochemical; details: ATP 10 μM, 20 min preincubation, 2 h reaction; read-out: Compound IC50 ErbB2 (D769Y)
T4 construct: purchased Reaction Biology Corporation
T4 sequence (P04626 23-1255 D769Y): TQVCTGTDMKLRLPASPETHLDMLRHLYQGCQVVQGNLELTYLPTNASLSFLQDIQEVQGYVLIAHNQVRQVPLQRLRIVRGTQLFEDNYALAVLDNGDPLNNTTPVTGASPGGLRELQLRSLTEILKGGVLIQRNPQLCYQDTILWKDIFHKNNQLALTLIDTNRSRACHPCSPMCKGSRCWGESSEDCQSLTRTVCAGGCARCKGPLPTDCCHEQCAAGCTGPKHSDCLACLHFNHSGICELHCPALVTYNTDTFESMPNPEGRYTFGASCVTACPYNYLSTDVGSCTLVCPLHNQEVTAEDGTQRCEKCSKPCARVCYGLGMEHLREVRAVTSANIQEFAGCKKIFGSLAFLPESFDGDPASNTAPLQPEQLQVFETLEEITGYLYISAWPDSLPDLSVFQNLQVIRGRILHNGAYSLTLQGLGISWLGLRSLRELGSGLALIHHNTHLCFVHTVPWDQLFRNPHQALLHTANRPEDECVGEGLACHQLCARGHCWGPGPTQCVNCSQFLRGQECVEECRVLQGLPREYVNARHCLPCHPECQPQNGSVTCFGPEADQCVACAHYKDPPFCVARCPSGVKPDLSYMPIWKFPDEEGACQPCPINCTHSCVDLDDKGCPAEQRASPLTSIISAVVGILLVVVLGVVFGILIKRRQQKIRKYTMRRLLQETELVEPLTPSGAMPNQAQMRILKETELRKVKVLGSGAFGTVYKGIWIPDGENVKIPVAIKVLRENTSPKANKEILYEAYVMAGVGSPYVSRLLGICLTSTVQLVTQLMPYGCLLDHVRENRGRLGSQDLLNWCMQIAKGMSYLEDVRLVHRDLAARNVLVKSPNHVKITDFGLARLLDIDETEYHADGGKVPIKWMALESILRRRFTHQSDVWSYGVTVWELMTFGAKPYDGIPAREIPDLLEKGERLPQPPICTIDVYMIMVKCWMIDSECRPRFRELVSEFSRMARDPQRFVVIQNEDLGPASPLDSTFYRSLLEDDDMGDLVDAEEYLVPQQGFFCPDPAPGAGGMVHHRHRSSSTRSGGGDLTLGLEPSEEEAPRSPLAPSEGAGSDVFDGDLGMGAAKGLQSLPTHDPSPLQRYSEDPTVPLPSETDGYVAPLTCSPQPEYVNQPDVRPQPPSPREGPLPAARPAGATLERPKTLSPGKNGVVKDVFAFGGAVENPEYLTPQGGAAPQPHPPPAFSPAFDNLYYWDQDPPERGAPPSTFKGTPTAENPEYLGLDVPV
Experimental: as §1, §2, §3, §4

[1] = test system: NCI-H1781 ErbB2 exon20ins (G766 > VC); experiment: ErbB2 mutant cell inhibition test (CTG, 72 hours); format: cell-based, Human; details: for IC50: Homo sapiens, NCI-H1781 ErbB2 exon20ins (G766 > VC), 72 hours, CTG
Experimental: Cells were cultured, harvested during their logarithmic growth phase, and counted using a platelet counter. Cell viability was verified to be above 90% by trypan blue exclusion assay. After in vitro culture, 2×10^6 cells were obtained. The cell suspension was aliquoted into a 96-well plate at 1×10^3 cells per well (90 μL/well), and incubated overnight under conditions of 37° C., 5% CO2, and 95% humidity. A 10× drug solution was prepared, with a maximum concentration of 10 μM for the assay, and serially diluted 3-fold to nine concentrations. 10 μL of the drug solution was added to each well of the 96-well plate inoculated with the cells, and three duplicate wells were set for each drug concentration. The 96-well plate, now containing the drug-treated cells, was cultured under conditions of 37° C., 5% CO2, and 95% humidity for an additional 72 hours before CTG analysis was performed.

[2] = test system: Ba/F3 ErbB2 A775_G776insYVMA mouse xenograft; experiment: Efficacy testing in NPSG mouse xenograft model; format: in vivo; details: for TGI (%): administration for 13 days; for Efficacy (in words): continuous administration for 13 days
Excerpt: NPSG male mice (Shanghai Jihui Laboratory Animal Care Co., Ltd., Certificate: No. 20170012006783) were subcutaneously inoculated on the right shoulder with Ba/F3 ErbB2 A775_G776insYVMA cells (cultured in vitro, 9×10^7 cells obtained). When the average tumor volume reached 130 mm^3, the mice were randomly divided into six groups based on tumor volume and body weight, with 10 mice in each group, and administration was started immediately. After the initiation of administration, the mice's body weight and tumor volume were measured twice a week, with the administration continued until Day 13 of the experiment. On Day 14 of the experiment, post-administration sample collection was conducted for each group.
Note: Data are presented as mean±standard error; control group is the group without any compound administered.

[3] = test system: Ba/F3 ErbB2 A775_G776insYVMA; experiment: ErbB2 mutant cell inhibition test (CTG, 72 hours); format: cell-based; details: for IC50: Mus musculus, BaF3, Ba/F3 ErbB2 A775_G776insYVMA, 72 hours, CTG
Experimental: Cells were cultured, harvested during their logarithmic growth phase, and counted using a platelet counter. Cell viability was verified to be above 90% by trypan blue exclusion assay. After in vitro culture, 2×10^6 cells were obtained. […] A 10× drug solution was prepared, with a maximum concentration of 10 μM for the assay, and serially diluted 3-fold to nine concentrations. 10 μL of the drug solution was added to each well of the 96-well plate inoculated with the cells, and three duplicate wells were set for each drug concentration.

[4] = 20 mg/kg, Day 0, mean ± standard error
[5] = 20 mg/kg, Day 4, mean ± standard error
[6] = 20 mg/kg, Day 7, mean ± standard error
[7] = 20 mg/kg, Day 11, mean ± standard error
[8] = 20 mg/kg, Day 13, mean ± standard error

T1 sequence (P04626 23-1255 R896C): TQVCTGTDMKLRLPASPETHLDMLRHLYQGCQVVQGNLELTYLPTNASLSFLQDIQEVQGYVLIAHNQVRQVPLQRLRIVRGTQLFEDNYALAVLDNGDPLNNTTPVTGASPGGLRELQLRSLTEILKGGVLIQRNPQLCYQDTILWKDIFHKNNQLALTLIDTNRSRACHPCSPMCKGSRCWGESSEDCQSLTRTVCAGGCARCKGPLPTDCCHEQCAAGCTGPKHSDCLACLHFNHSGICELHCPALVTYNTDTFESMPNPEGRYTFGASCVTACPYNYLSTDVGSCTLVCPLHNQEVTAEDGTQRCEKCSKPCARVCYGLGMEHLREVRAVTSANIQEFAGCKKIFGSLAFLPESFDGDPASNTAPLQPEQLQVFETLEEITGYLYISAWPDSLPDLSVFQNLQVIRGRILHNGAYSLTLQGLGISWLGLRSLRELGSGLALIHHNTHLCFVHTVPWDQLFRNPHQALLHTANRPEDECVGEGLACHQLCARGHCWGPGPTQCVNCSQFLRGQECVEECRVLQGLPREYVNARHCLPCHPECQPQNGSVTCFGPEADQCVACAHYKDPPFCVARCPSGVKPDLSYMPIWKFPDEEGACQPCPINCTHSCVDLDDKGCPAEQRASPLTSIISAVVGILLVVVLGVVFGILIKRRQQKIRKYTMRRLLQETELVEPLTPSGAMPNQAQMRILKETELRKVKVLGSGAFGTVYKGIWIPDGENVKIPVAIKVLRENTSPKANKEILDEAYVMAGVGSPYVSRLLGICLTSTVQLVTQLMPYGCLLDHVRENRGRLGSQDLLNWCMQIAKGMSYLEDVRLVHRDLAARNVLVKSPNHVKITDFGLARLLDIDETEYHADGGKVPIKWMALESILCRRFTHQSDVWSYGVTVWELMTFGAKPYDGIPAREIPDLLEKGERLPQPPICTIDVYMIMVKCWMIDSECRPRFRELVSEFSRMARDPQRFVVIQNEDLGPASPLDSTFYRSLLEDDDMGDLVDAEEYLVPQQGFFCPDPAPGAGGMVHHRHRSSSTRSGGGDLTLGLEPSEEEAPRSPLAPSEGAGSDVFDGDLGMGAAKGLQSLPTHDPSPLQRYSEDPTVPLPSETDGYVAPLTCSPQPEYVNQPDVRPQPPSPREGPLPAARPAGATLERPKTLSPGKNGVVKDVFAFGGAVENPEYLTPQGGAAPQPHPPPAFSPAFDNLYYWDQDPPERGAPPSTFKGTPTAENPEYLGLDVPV

## Cc1cc(Nc2ncnc3ccc(NC(=O)/C=C/C4COCCN4)cc23)ccc1Oc1cc2nncn2cn1 (stereo not drawn)
ErbB2 (R896C)
  IC50: 0.973 nM
ErbB2 (D769H)
  IC50: 0.72 nM
ErbB2 (V777L)
  IC50: 0.438 nM
ErbB2 (D769Y)
  IC50: 0.892 nM

## Cc1cc(Nc2ncnc3ccc(NC(=O)/C(F)=C/[C@H]4CCCN4C)cc23)ccc1Oc1cc2nncn2cn1
ErbB2 (R896C)
  IC50: 4.84 nM
ErbB2 (D769H)
  IC50: 1.69 nM
ErbB2 (V777L)
  IC50: 2.41 nM
ErbB2 (D769Y)
  IC50: 0.811 nM

## CCOc1cc2ncc(C#N)c(Nc3ccc(Oc4cc5nncn5cn4)c(C)c3)c2cc1NC(=O)/C=C/[C@H]1CCCN1C
ErbB2 (R896C)
  IC50: 1.94 nM
ErbB2 (D769H)
  IC50: 1.34 nM
ErbB2 (V777L)
  IC50: 0.889 nM
ErbB2 (D769Y)
  IC50: 2.06 nM

## CCOc1cc2ncnc(Nc3ccc(Oc4cc5nncn5cn4)c(C)c3)c2cc1NC(=O)/C=C/[C@H]1CCCN1C
ErbB2 (R896C)
  IC50: 1.87 nM
ErbB2 (D769H)
  IC50: 0.563 nM
ErbB2 (V777L)
  IC50: 0.471 nM
ErbB2 (D769Y)
  IC50: 0.413 nM

## CCOc1cc2ncnc(Nc3ccc(Oc4ccn5ncnc5c4)c(C)c3)c2cc1NC(=O)/C=C/[C@H]1CCCN1C
ErbB2 (R896C)
  IC50: < 0.152 nM
ErbB2 (D769H)
  IC50: < 0.152 nM
ErbB2 (V777L)
  IC50: < 0.152 nM
ErbB2 (D769Y)
  IC50: < 0.152 nM

## CCOc1cc2ncnc(Nc3ccc(Oc4ccn5ncnc5c4)c(C)c3)c2cc1NC(=O)/C(F)=C/[C@@H]1CCCN1C
ErbB2 (R896C)
  IC50: 0.978 nM
ErbB2 (D769H)
  IC50: 0.998 nM
ErbB2 (V777L)
  IC50: 0.235 nM
ErbB2 (D769Y)
  IC50: 2.44 nM

## CCOc1cc2ncnc(Nc3ccc(Oc4ccn5ncnc5c4)c(C)c3)c2cc1NC(=O)/C(F)=C/[C@H]1CCCN1C [Compound I]
ErbB2 (R896C)
  IC50: 0.713 nM
ErbB2 (D769H)
  IC50: 0.716 nM
ErbB2 (V777L)
  IC50: 0.312 nM
ErbB2 (D769Y)
  IC50: 1.4 nM
[1]
  IC50: 35.8 nM
[1]; NCI-H1781 mutant cell line
  Inhibitory activity on cell proliferation (in words): good inhibitory activity
[2]; 10 mg/kg, Day 0, mean ± standard error
  Tumor volume: 130.9 ± 4.72 mm^3
[2]; 10 mg/kg, Day 4, mean ± standard error
  Tumor volume: 112.1 ± 4.71 mm^3
[2]; 10 mg/kg, Day 7, mean ± standard error
  Tumor volume: 157.7 ± 6.95 mm^3
[2]; 10 mg/kg, Day 11, mean ± standard error
  Tumor volume: 160.2 ± 6.3 mm^3
[2]; 10 mg/kg, Day 13, mean ± standard error
  Tumor volume: 172.9 ± 11.16 mm^3
[2]; 10 mg/kg
  TGI (%): 95%
  Efficacy (in words): strong efficacy
[2]; [4]
  Tumor volume: 130.2 ± 5.25 mm^3
[2]; [5]
  Tumor volume: 69.2 ± 2.69 mm^3
[2]; [6]
  Tumor volume: 82.7 ± 4.74 mm^3
[2]; [7]
  Tumor volume: 93.5 ± 5.75 mm^3
[2]; [8]
  Tumor volume: 71.1 ± 4.51 mm^3
[2]; 20 mg/kg
  TGI (%): 107%
  Efficacy (in words): strong efficacy
[2]; 40 mg/kg, Day 0, mean ± standard error
  Tumor volume: 130.1 ± 5 mm^3
[2]; 40 mg/kg, Day 4, mean ± standard error
  Tumor volume: 63.8 ± 4.44 mm^3
[2]; 40 mg/kg, Day 7, mean ± standard error
  Tumor volume: 36.3 ± 11.12 mm^3
[2]; 40 mg/kg, Day 11, mean ± standard error
  Tumor volume: 21.5 ± 9.26 mm^3
[2]; 40 mg/kg, Day 13, mean ± standard error
  Tumor volume: 20.6 ± 8.61 mm^3
[2]; 40 mg/kg
  TGI (%): 112%
  Efficacy (in words): strong efficacy
[2]; 40 mg/kg, statistically different from other test groups (p-value less than 0.01)
  Tumor inhibitory effect compared with the other test groups (in words): strongest tumor inhibitory effect
[3]; Ba/F3 ErbB2 A775_G776insYVMA mutant cell line
  Inhibitory activity on cell proliferation (in words): good inhibitory activity
[3]
  IC50: 5 nM

## CS(=O)(=O)CCNCc1ccc(-c2ccc3ncnc(Nc4ccc(OCc5cccc(F)c5)c(Cl)c4)c3c2)o1 [Lapatinib, reference compound]
[2]; 20 mg/kg
  Efficacy (in words): moderate efficacy
[3]
  IC50: 106 nM

## CCOc1cc2ncc(C#N)c(Nc3ccc(OCc4ccccn4)c(Cl)c3)c2cc1NC(=O)/C=C/CN(C)C [Neratinib, reference compound]
[2]; [4]
  Tumor volume: 130.9 ± 4.75 mm^3
[2]; [5]
  Tumor volume: 115.3 ± 9.81 mm^3
[2]; [6]
  Tumor volume: 182 ± 10.87 mm^3
[2]; [7]
  Tumor volume: 325.6 ± 9.86 mm^3
[2]; [8]
  Tumor volume: 532.8 ± 15.26 mm^3
[2]; 20 mg/kg
  TGI (%): 56%

## CCOc1cc2ncc(C#N)c(Nc3ccc(OCc4ccccn4)c(Cl)c3)c2cc1NC(=O)/C=C/[C@H]1CCCN1C [Pyrotinib, reference compound]
ErbB2 (R896C)
  IC50: 5.24 nM
ErbB2 (D769H)
  IC50: 15.6 nM
ErbB2 (V777L)
  IC50: 10.5 nM
ErbB2 (D769Y)
  IC50: 91.7 nM
[1]
  IC50: 73.2 nM
[2]; [4]
  Tumor volume: 130.4 ± 5.4 mm^3
[2]; [5]
  Tumor volume: 154.6 ± 4.87 mm^3
[2]; [6]
  Tumor volume: 328.2 ± 13.39 mm^3
[2]; [7]
  Tumor volume: 405.4 ± 19.38 mm^3
[2]; [8]
  Tumor volume: 534.8 ± 38.29 mm^3
[2]; 20 mg/kg
  TGI (%): 55%
  Efficacy (in words): moderate efficacy

## Cc1cc(Nc2ncnc3ccc(NC4=NC(C)(C)CO4)cc23)ccc1Oc1ccn2ncnc2c1 [Tucatinib, reference compound]
ErbB2 (R896C)
  IC50: 2.17 nM
ErbB2 (D769H)
  IC50: 2.58 nM
ErbB2 (V777L)
  IC50: 1.08 nM
ErbB2 (D769Y)
  IC50: 8.89 nM

— US20240197737A1, “APPLICATION OF COMPOUND IN PREPARATION OF INHIBITORY DRUG TARGETING ERBB2 MUTANT” (SHANGHAI PHARMACEUTICALS HOLDING CO., LTD., priority 2021, published 2024)
